Assay results: US10513521B2, “Compositions and methods for inhibiting BMP” (The Brigham and Women's Hospital, Inc., priority 2014, dated 2019)
Changes are numbered by the printed parent chain. Like-named read-outs stand apart in the source and are kept apart here.

Tests used:
[1] = Cell-based assay, TGFb1 (Cell IC50)
BMP4 = BMP4 HTRF assay; type: cell-based
ALK2 [2] = target: T1, ALK2 (Homo sapiens, UniProt Q04771); test: TR-FRET enzymatic ALK kinase assay, ALK2
T1 sequence (Q04771 21-509): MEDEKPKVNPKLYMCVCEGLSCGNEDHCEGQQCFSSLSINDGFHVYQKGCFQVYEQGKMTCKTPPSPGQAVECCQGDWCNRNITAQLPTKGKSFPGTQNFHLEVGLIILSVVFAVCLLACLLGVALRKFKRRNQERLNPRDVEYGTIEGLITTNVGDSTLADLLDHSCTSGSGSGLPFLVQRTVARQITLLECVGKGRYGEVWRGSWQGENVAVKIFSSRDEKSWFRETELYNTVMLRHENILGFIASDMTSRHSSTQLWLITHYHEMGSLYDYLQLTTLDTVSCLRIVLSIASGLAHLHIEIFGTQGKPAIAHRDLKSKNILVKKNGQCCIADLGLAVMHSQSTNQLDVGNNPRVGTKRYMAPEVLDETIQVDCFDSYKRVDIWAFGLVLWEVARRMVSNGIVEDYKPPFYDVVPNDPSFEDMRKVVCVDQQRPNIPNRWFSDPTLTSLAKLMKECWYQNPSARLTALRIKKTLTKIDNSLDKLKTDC
Experimental: (§1) Briefly, the ALKs enzymatic assay was initiated by dispense 2.5 μl enzyme in 1× kinase reaction buffer. The assay plate was then added with compounds followed by incubation at room temperature for 10 minutes. Then 2.5 μl/well substrate was added.

ALK1 [3] = target: T2, ALK1 (Bos taurus, UniProt A4FUX2); test: HTRF pSMAD1 cell-based ALK1 assay (BAOEC cells, BMP9 as agonist); set-up: species or system Bovine
T2 construct: The BAOEC cell line was employed for the measurement of ALK1 activity using BMP9 as the agonist; host or cells: BAOEC (bovine aortic endothelial cells)
T2 sequence (A4FUX2 23-503): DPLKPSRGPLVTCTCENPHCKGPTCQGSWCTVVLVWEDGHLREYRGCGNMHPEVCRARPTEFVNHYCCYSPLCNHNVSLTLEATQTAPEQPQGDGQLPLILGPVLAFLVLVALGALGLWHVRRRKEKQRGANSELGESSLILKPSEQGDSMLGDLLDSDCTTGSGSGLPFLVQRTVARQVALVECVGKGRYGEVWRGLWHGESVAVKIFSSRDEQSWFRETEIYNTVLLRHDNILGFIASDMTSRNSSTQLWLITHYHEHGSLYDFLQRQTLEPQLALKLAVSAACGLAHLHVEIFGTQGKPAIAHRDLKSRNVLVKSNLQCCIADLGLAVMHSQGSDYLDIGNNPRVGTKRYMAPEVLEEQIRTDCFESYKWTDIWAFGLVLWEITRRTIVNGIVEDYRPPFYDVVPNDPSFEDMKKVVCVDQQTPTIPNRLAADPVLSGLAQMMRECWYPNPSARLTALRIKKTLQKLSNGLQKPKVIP
Experimental: 2. HTRF Cell-Based ALK1 and ALK2 Assays in 384-Well Plate Format We have developed a cell based ALK1 kinase assay and a cell-based ALK2 assay. The BAOEC cell line was employed for the measurement of ALK1 activity using BMP9 as the agonist. The C2C12 cell line was selected for the measurement of ALK2 activity using BMP6 as the agonist. The kinase specificity was defined by the specific cell line and agonist. The kinase activity was determined by the status of SMD 1/5/8 phosphorylation stimulated by the agonist.
HyClone Fetal Bovine Serum was obtained from GE healthcare life sciences (Logan, Utah). BMP6 and BMP9 were purchased from R&D System. […] The compound plates and the white solid MB assay plates were purchased from Greiner Bio-one (Monroe, N.C.).
HTRF optimization experiments were performed in 384 well plate format. […] Pre-starved cells were then plated in 384 well plate in the starvation medium (containing in 0.1% FBS). After 4 hours, compounds were added to the assay plate and incubated for 30 minutes. The assay plate was then added with BMP6 for C2C12 cells or BMP9 for BAOEC cells and incubated for 30 minutes.
HTRF assay was performed to measure the status of SMAD 1 phosphorylation after stimulated with the agonist (Table 3). This HTRF phospho SMAD1 cell assay was developed and optimized for the homogenous detection of phospho SMAD 1 levels in cells. […] The plate was incubated at room temperature for overnight.

ALK1 [4] = target: ALK1 (Homo sapiens, UniProt P37023); test: TR-FRET enzymatic ALK kinase assay, ALK1
Sequence of ALK1 (Homo sapiens, UniProt P37023) (P37023 22-503): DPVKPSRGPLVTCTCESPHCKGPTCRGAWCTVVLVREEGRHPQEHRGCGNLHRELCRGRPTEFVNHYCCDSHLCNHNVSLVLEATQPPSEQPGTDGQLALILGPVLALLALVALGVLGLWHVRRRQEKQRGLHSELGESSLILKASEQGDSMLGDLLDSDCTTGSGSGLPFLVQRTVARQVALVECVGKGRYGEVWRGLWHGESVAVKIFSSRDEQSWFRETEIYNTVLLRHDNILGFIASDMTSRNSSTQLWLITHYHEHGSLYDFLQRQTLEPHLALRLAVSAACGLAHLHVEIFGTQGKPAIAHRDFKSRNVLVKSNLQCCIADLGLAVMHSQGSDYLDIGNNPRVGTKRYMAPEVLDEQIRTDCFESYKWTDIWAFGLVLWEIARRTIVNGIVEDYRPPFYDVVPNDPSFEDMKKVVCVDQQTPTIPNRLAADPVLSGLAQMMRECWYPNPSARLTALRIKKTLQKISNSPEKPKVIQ
Experimental: as §1

ALK6 = ALK6 (Homo sapiens, UniProt O00238); test: TR-FRET enzymatic ALK kinase assay, ALK6
Sequence of ALK6 (O00238 14-502): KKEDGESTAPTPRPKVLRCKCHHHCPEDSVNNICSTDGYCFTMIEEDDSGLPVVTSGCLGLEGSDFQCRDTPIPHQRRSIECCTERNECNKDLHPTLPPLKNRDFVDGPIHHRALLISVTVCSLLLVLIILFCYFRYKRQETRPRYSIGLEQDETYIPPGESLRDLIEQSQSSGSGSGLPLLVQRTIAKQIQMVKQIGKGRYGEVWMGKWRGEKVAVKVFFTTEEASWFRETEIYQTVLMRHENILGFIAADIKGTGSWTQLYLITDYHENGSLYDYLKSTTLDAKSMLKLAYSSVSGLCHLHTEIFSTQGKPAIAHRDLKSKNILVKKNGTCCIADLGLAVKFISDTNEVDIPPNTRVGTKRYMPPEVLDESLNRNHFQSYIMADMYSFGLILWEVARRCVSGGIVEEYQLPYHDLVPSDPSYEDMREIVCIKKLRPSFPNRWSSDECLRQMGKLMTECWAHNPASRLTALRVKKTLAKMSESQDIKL
Experimental: as §1

ALK5 = target: T3, ALK5 (Homo sapiens, UniProt P36897); test: TR-FRET enzymatic ALK kinase assay, ALK5
T3 sequence (P36897 34-503): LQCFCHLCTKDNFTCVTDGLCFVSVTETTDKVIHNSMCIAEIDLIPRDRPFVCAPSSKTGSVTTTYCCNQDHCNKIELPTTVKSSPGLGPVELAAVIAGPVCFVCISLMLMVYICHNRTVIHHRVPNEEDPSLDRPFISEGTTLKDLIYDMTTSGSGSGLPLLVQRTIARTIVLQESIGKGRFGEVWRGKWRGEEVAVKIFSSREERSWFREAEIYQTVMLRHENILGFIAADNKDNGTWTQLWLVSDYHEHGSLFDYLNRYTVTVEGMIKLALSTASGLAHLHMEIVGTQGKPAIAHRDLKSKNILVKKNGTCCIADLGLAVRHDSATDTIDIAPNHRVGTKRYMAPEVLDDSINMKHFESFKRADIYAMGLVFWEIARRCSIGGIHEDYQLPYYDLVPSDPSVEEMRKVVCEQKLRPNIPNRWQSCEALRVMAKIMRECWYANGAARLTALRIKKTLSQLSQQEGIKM
Experimental: Six ALK kinase enzyme assays were developed for determination of compound activities on ALK1, ALK2, ALK3, ALK4, ALK5 and ALK6.
as §1

ALK4 = target: T4, ALK4 (Homo sapiens, UniProt P36896); test: TR-FRET enzymatic ALK kinase assay, ALK4
T4 sequence (P36896 24-505): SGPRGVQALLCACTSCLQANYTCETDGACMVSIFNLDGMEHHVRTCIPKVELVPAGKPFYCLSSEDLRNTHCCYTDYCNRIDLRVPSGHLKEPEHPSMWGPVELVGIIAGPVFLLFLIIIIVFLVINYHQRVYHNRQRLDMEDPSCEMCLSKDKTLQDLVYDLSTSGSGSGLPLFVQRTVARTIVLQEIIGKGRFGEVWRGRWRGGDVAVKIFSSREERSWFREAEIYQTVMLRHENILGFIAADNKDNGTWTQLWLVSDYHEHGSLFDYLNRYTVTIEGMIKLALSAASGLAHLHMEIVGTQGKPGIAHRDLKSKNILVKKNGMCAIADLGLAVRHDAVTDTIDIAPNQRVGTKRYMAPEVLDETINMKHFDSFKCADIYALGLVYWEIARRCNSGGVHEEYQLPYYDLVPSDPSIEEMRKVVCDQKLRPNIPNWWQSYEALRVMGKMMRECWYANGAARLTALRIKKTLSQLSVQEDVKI
Experimental: as §1

ALK3 = ALK3 (Homo sapiens, UniProt P36894); test: TR-FRET enzymatic ALK kinase assay, ALK3
Sequence of ALK3 (P36894 24-532): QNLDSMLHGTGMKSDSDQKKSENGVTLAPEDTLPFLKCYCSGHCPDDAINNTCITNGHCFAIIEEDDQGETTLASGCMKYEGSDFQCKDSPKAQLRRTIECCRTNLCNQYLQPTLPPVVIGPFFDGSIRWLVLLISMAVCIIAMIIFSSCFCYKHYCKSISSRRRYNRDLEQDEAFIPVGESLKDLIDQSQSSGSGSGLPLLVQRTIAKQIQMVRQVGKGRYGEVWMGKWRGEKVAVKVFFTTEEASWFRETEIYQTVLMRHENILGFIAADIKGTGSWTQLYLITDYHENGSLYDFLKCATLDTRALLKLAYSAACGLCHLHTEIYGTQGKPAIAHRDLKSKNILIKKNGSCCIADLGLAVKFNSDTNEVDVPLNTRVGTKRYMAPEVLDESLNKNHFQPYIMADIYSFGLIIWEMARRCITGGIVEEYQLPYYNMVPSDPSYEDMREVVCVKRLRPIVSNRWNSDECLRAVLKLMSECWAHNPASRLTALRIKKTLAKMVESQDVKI
Experimental: as §1

ALK2 [5] = target: T5, ALK2 (Mus musculus, UniProt P37172); test: HTRF pSMAD1 cell-based ALK2 assay (C2C12 cells, BMP6 as agonist)
T5 construct: The C2C12 cell line was selected for the measurement of ALK2 activity using BMP6 as the agonist; host or cells: C2C12
T5 sequence (P37172 21-509): T1 sequence (Q04771 21-509) with M1V, P10Q, L121I, D162E, P310S
How it was run: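 Phospho-SMAD1 HTRF readout, detection incubated overnight at room temperature. Before that: starved cells in 0.1% FBS for 4 h, 30 min compound pretreatment, then 30 min agonist, BMP6 on C2C12 or BMP9 on BAOEC.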

IC50 [1]: 0.243 µM
IC50 (BMP4): 0.82 µM
IC50 (ALK2 [2]): 0.0097 µM
IC50 (ALK1 [3]): 0.033 µM
IC50 (ALK1 [4]): 0.004 µM
IC50 (ALK6): 0.647 µM
IC50 (ALK5): 4.66 µM
IC50 (ALK4): 1.36 µM
IC50 (ALK3): 0.034 µM
IC50 (ALK2 [5]; HTRF assay, BMP6 as agonist, C2C12 cells, read-out: BMP6 HTRF): 0.047 µM
IC50 (ALK2 [5]; cell-based assay, BMP6, read-out: Cell IC50 BMP6): 0.002 µM
Structure (SMILES): C[C@@H]1CNC[C@H](C)N1c1ccc(-c2cnc3c(-c4ccc(CO)c5ccccc45)cnn3c2)cc1 [Compound 22, (4-(6-(4-((2R,6S)-2,6-dimethylpiperazin-1-yl)phenyl)pyrazolo[1,5-a]pyrimidin-3-yl)naphthalen-1-yl)methanol]
